PubChem BioAssay (NCI)
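How tested: cells in 96-well plates exposed to compound for 48 hours at five concentrations. TGI: total growth inhibition.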

Legend:
Experiment in all cases: inhibition of tumour cell growth, NCI panel, 48 h
CCRF-CEM leukemia = system: CCRF-CEM leukemia
SK-OV-3 ovarian = system: SK-OV-3 ovarian
TK-10 renal = system: TK-10 renal
SW-620 colon = system: SW-620 colon
MOLT-4 leukemia = system: MOLT-4 leukemia
HOP-92 NSCLC = system: HOP-92 NSCLC
CAKI-1 renal = system: CAKI-1 renal
RPMI-8226 leukemia = system: RPMI-8226 leukemia
PC-3 prostate = system: PC-3 prostate
HCC-2998 colon = system: HCC-2998 colon
KM12 colon = system: KM12 colon
ACHN renal = system: ACHN renal
OVCAR-5 ovarian = system: OVCAR-5 ovarian
NCI-H226 lung = system: NCI-H226 lung
SF-295 CNS = system: SF-295 CNS
U251 CNS = system: U251 CNS
SF-539 CNS = system: SF-539 CNS
COLO 205 colon = system: COLO 205 colon
SN12C renal = system: SN12C renal
HCT-116 colon = system: HCT-116 colon
MDA-MB-435 = system: MDA-MB-435
SNB-19 CNS = system: SNB-19 CNS
SK-MEL-5 melanoma = system: SK-MEL-5 melanoma
NCI/ADR-RES ovarian = system: NCI/ADR-RES ovarian
MDA-N = system: MDA-N
A549 NSCLC = system: A549 NSCLC
OVCAR-3 ovarian = system: OVCAR-3 ovarian
HS 578T breast = system: HS 578T breast
NCI-H522 lung = system: NCI-H522 lung
M14 melanoma = system: M14 melanoma
MDA-MB-231 breast = system: MDA-MB-231 breast
HCT-15 colon = system: HCT-15 colon
HOP-62 NSCLC = system: HOP-62 NSCLC
RXF 393 renal = system: RXF 393 renal
DU-145 prostate = system: DU-145 prostate
MCF7 breast = system: MCF7 breast
SK-MEL-2 melanoma = system: SK-MEL-2 melanoma
SR leukemia = system: SR leukemia
SF-268 CNS = system: SF-268 CNS
EKVX NSCLC = system: EKVX NSCLC
K-562 leukemia = system: K-562 leukemia
NCI-H460 lung = system: NCI-H460 lung
BT-549 breast = system: BT-549 breast
IGROV1 ovarian = system: IGROV1 ovarian
HT29 colon = system: HT29 colon
NCI-H23 lung = system: NCI-H23 lung
OVCAR-8 ovarian = system: OVCAR-8 ovarian
786-0 renal = system: 786-0 renal
SNB-75 CNS = system: SNB-75 CNS
SK-MEL-28 melanoma = system: SK-MEL-28 melanoma
HL-60(TB) leukemia = system: HL-60(TB) leukemia
A498 renal = system: A498 renal
UACC-257 melanoma = system: UACC-257 melanoma
UACC-62 melanoma = system: UACC-62 melanoma
MALME-3M melanoma = system: MALME-3M melanoma
UO-31 renal = system: UO-31 renal
OVCAR-4 ovarian = system: OVCAR-4 ovarian
T-47D breast = system: T-47D breast
LOX IMVI melanoma = system: LOX IMVI melanoma

Q: With O=C(O)C(CSC(c1ccccc1)(c1ccccc1)c1ccccc1)N=Cc1cccs1 (stereo not drawn) as the molecule, how does the TGI (CCRF-CEM leukemia) read?
A: > 100 µM

Q: And the TGI (SK-OV-3 ovarian)?
A: > 67.5 µM

Q: And the TGI (TK-10 renal)?
A: > 100 µM

Q: What about the TGI (SW-620 colon) of the same molecule?
A: > 100 µM

Q: What about the TGI (MOLT-4 leukemia) of the same molecule?
A: > 75.7 µM

Q: What about the TGI (HOP-92 NSCLC) of the same molecule?
A: > 84 µM

Q: And the TGI (CAKI-1 renal)?
A: > 54.7 µM

Q: And the TGI (RPMI-8226 leukemia)?
A: > 100 µM

Q: What about the TGI (PC-3 prostate) of the same molecule?
A: > 42.4 µM

Q: What about the TGI (HCC-2998 colon) of the same molecule?
A: 27.7 µM

Q: And the TGI (KM12 colon)?
A: > 60.7 µM

Q: What about the TGI (ACHN renal) of the same molecule?
A: > 100 µM

Q: What about the TGI (OVCAR-5 ovarian) of the same molecule?
A: > 100 µM

Q: What about the TGI (NCI-H226 lung) of the same molecule?
A: > 96.7 µM

Q: And the TGI (SF-295 CNS)?
A: > 100 µM

Q: And the TGI (U251 CNS)?
A: > 62.4 µM

Q: What about the TGI (SF-539 CNS) of the same molecule?
A: 9.21 µM

Q: What about the TGI (COLO 205 colon) of the same molecule?
A: 6.49 µM

Q: What about the TGI (SN12C renal) of the same molecule?
A: 98.1 µM

Q: What about the TGI (HCT-116 colon) of the same molecule?
A: > 56.2 µM

Q: And the TGI (MDA-MB-435)?
A: 1.21 µM

Q: What about the TGI (SNB-19 CNS) of the same molecule?
A: > 100 µM

Q: What about the TGI (SK-MEL-5 melanoma) of the same molecule?
A: > 24.7 µM

Q: And the TGI (NCI/ADR-RES ovarian)?
A: 63.8 µM

Q: And the TGI (MDA-N)?
A: 1.94 µM

Q: What about the TGI (A549 NSCLC) of the same molecule?
A: > 100 µM

Q: What about the TGI (OVCAR-3 ovarian) of the same molecule?
A: 19.1 µM

Q: And the TGI (HS 578T breast)?
A: > 34.2 µM

Q: What about the TGI (NCI-H522 lung) of the same molecule?
A: > 20.1 µM

Q: What about the TGI (M14 melanoma) of the same molecule?
A: 5.11 µM

Q: What about the TGI (MDA-MB-231 breast) of the same molecule?
A: 7.01 µM

Q: What about the TGI (HCT-15 colon) of the same molecule?
A: > 100 µM

Q: What about the TGI (HOP-62 NSCLC) of the same molecule?
A: > 100 µM

Q: What about the TGI (RXF 393 renal) of the same molecule?
A: > 19.6 µM

Q: What about the TGI (DU-145 prostate) of the same molecule?
A: > 38.1 µM

Q: And the TGI (MCF7 breast)?
A: > 56 µM

Q: What about the TGI (SK-MEL-2 melanoma) of the same molecule?
A: 27.4 µM

Q: What about the TGI (SR leukemia) of the same molecule?
A: > 100 µM

Q: What about the TGI (SF-268 CNS) of the same molecule?
A: > 40.2 µM

Q: And the TGI (EKVX NSCLC)?
A: > 100 µM

Q: And the TGI (K-562 leukemia)?
A: > 100 µM

Q: And the TGI (NCI-H460 lung)?
A: > 48.9 µM

Q: What about the TGI (BT-549 breast) of the same molecule?
A: > 27.5 µM

Q: What about the TGI (IGROV1 ovarian) of the same molecule?
A: > 100 µM

Q: And the TGI (HT29 colon)?
A: 18.6 µM

Q: What about the TGI (NCI-H23 lung) of the same molecule?
A: 43.3 µM

Q: What about the TGI (OVCAR-8 ovarian) of the same molecule?
A: 42.3 µM

Q: And the TGI (786-0 renal)?
A: > 53.2 µM

Q: What about the TGI (SNB-75 CNS) of the same molecule?
A: > 79.5 µM

Q: And the TGI (SK-MEL-28 melanoma)?
A: > 100 µM

Q: And the TGI (HL-60(TB) leukemia)?
A: 26.6 µM

Q: And the TGI (A498 renal)?
A: > 96.8 µM

Q: And the TGI (UACC-257 melanoma)?
A: > 100 µM

Q: And the TGI (UACC-62 melanoma)?
A: > 78.3 µM

Q: And the TGI (MALME-3M melanoma)?
A: > 69.5 µM

Q: And the TGI (UO-31 renal)?
A: > 100 µM

Q: What about the TGI (OVCAR-4 ovarian) of the same molecule?
A: > 100 µM

Q: And the TGI (T-47D breast)?
A: > 100 µM

Q: And the TGI (LOX IMVI melanoma)?
A: > 59.8 µM

Q: How did the TGI (CCRF-CEM leukemia) turn out when NC1CC(=O)c2c(Cl)sc(Cl)c21 (stereo not drawn) was run?
A: 2.94 µM

Q: What about the TGI (SK-OV-3 ovarian) of the same molecule?
A: 26.4 µM

Q: And the TGI (TK-10 renal)?
A: 6.26 µM

Q: And the TGI (SW-620 colon)?
A: 3.73 µM

Q: What about the TGI (MOLT-4 leukemia) of the same molecule?
A: 9.37 µM

Q: What about the TGI (HOP-92 NSCLC) of the same molecule?
A: 2.91 µM

Q: And the TGI (CAKI-1 renal)?
A: 6.1 µM

Q: What about the TGI (RPMI-8226 leukemia) of the same molecule?
A: 7.76 µM

Q: What about the TGI (PC-3 prostate) of the same molecule?
A: 18 µM

Q: What about the TGI (HCC-2998 colon) of the same molecule?
A: 22.7 µM

Q: And the TGI (KM12 colon)?
A: 12.8 µM

Q: And the TGI (ACHN renal)?
A: 6.14 µM

Q: And the TGI (OVCAR-5 ovarian)?
A: 42.9 µM

Q: And the TGI (NCI-H226 lung)?
A: 30.9 µM

Q: And the TGI (SF-295 CNS)?
A: 31.3 µM

Q: And the TGI (U251 CNS)?
A: 21.5 µM

Q: And the TGI (SF-539 CNS)?
A: 8.85 µM

Q: What about the TGI (COLO 205 colon) of the same molecule?
A: 2.57 µM

Q: And the TGI (SN12C renal)?
A: 14.4 µM

Q: What about the TGI (HCT-116 colon) of the same molecule?
A: 4.49 µM

Q: And the TGI (MDA-MB-435)?
A: 15.5 µM

Q: And the TGI (SNB-19 CNS)?
A: 42.2 µM

Q: What about the TGI (SK-MEL-5 melanoma) of the same molecule?
A: 22.9 µM

Q: What about the TGI (NCI/ADR-RES ovarian) of the same molecule?
A: 49.9 µM

Q: And the TGI (MDA-N)?
A: 16.4 µM

Q: And the TGI (A549 NSCLC)?
A: 35.3 µM

Q: What about the TGI (OVCAR-3 ovarian) of the same molecule?
A: 24 µM

Q: What about the TGI (HS 578T breast) of the same molecule?
A: 70.4 µM

Q: What about the TGI (NCI-H522 lung) of the same molecule?
A: 2.89 µM

Q: And the TGI (M14 melanoma)?
A: 35.4 µM

Q: And the TGI (MDA-MB-231 breast)?
A: 6.39 µM

Q: And the TGI (HCT-15 colon)?
A: 3.94 µM

Q: And the TGI (HOP-62 NSCLC)?
A: 34 µM

Q: And the TGI (RXF 393 renal)?
A: 2.95 µM

Q: What about the TGI (DU-145 prostate) of the same molecule?
A: 16 µM

Q: And the TGI (MCF7 breast)?
A: 7.9 µM

Q: And the TGI (SK-MEL-2 melanoma)?
A: 25 µM

Q: And the TGI (SR leukemia)?
A: 1.99 µM

Q: And the TGI (SF-268 CNS)?
A: 67.4 µM

Q: What about the TGI (EKVX NSCLC) of the same molecule?
A: 5.07 µM

Q: What about the TGI (K-562 leukemia) of the same molecule?
A: 75 µM

Q: And the TGI (NCI-H460 lung)?
A: 33.7 µM

Q: What about the TGI (BT-549 breast) of the same molecule?
A: 10.7 µM

Q: And the TGI (IGROV1 ovarian)?
A: 9.84 µM

Q: What about the TGI (HT29 colon) of the same molecule?
A: 14.1 µM

Q: And the TGI (NCI-H23 lung)?
A: 25 µM

Q: And the TGI (OVCAR-8 ovarian)?
A: 20 µM

Q: What about the TGI (786-0 renal) of the same molecule?
A: 2.87 µM

Q: And the TGI (SNB-75 CNS)?
A: 26.1 µM

Q: What about the TGI (SK-MEL-28 melanoma) of the same molecule?
A: 4 µM

Q: And the TGI (HL-60(TB) leukemia)?
A: 6.09 µM

Q: What about the TGI (A498 renal) of the same molecule?
A: 31.1 µM

Q: What about the TGI (UACC-257 melanoma) of the same molecule?
A: 7.27 µM

Q: And the TGI (UACC-62 melanoma)?
A: 7.78 µM

Q: What about the TGI (MALME-3M melanoma) of the same molecule?
A: 4.66 µM

Q: And the TGI (UO-31 renal)?
A: 20.3 µM

Q: What about the TGI (OVCAR-4 ovarian) of the same molecule?
A: 16 µM

Q: And the TGI (T-47D breast)?
A: 4.96 µM

Q: What about the TGI (LOX IMVI melanoma) of the same molecule?
A: 4.81 µM
